Laboratory results reported in patent US10214492B2, “Heterocyclic inhibitors of MCT4” (Vettore, LLC, priority 2016, dated 2019).

Legend:
[1] = Metabolic stability in human liver microsomes (in vitro t1/2); format: in vitro ADME; conditions: for half-life at 2 µM: human liver microsomes 0.5 mg/mL, 2 μM compound, read-out: Human microsome t1/2, min; for Human microsome % 60 min: human liver microsomes
Experimental: (§1) The following are assays that may be used to evaluate the metabolic stability of compounds of Formula (I) in human, rat, or mouse microsomes. The assays follow a common procedure recited below. 1. […] Two separated experiments were performed as follows. a) With NADPH: 10 μL of 20 mg/mL liver microsomes and 40 μL of 10 mM NADPH were added to the incubations. […] The final concentration of microsomes was 0.5 mg/mL. 3. The reaction was started with the addition of 4 μL of 200 μM control compound or test compound solutions. Verapamil was used as positive control in this study. The final concentration of test compound or control compound was 2 μM. 4. Aliquots of 50 μL were taken from the reaction solution at 0, 15, 30, 45 and 60 min. […] Samples were centrifuged at 3,220 g for 40 minutes. A 90 μL aliquot of the supernatant was mixed with 90 μL of ultra-pure H2O and then used for LC-MS/MS analysis. 5. Data analysis. All calculations were carried out using Microsoft Excel. Peak areas were determined from extracted ion chromatograms. The slope value, k, was determined by linear regression of the natural logarithm of the remaining percentage of the parent drug vs. incubation time curve. The in vitro half-life (in vitro t1/2) was determined from the slope value: in vitro t1/2=−(0.693)/k.

[2] = Metabolic stability in mouse liver microsomes (in vitro t1/2); format: in vitro ADME; conditions: for half-life at 2 µM: mouse liver microsomes 0.5 mg/mL, 2 μM compound, read-out: Mouse microsome t1/2, min; for Mouse microsome % 60 min: mouse liver microsomes
Experimental: as §1

MCT1 = MCT1 (Homo sapiens (Human), UniProt P53985); assay: Assay 4: MCT1-mediated lactate transport in BT20 breast cancer cells; format: cell-based; conditions: Table 27
Method in brief: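 BT20 cells loaded with BCECF-AM (30 mM DMSO stock) for 5 min at 37° C, washed and resuspended in Tyrode's Solution pH 7.4. Lactate uptake tracked via BCECF intracellular pH signal after adding 10 mM L-lactate.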

MCT4 = MCT4 (Homo sapiens (Human), UniProt O15427); assay: Assay 3: MCT4-mediated lactate transport in MDA-MB-231 breast cancer cells; format: cell-based; conditions: MDA-MB-231 cells; lactate transport
Method in brief: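 MDA-MB-231 cells loaded with BCECF-AM, 5 min at 37° C, washed and resuspended in Tyrode's Solution, pH 7.4. MCT4 lactate/proton symport followed as the intracellular pH change reported by BCECF fluorescence.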

Chain of MCT1 (P53985 whole entry): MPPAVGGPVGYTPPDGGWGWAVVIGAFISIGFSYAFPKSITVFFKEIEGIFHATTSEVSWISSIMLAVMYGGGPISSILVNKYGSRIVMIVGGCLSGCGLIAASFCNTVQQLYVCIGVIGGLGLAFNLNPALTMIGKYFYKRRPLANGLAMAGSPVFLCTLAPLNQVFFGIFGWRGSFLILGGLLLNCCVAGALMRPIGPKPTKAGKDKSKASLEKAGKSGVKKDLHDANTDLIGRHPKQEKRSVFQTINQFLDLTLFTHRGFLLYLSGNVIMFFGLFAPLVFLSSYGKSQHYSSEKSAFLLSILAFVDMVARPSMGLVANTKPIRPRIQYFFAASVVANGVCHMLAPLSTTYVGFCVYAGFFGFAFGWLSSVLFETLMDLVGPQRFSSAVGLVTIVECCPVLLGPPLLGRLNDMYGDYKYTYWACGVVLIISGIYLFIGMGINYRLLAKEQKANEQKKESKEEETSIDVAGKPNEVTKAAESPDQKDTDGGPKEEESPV
Chain of MCT1 (P35613 140-385 partner): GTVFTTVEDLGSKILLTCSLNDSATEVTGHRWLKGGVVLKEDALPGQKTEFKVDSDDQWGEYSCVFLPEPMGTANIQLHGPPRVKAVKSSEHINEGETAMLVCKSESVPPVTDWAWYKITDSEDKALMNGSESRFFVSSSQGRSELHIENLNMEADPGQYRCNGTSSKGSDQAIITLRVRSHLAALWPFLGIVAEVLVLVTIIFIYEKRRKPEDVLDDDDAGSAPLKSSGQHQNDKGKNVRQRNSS
Chain of MCT4 (O15427 whole entry, looked up): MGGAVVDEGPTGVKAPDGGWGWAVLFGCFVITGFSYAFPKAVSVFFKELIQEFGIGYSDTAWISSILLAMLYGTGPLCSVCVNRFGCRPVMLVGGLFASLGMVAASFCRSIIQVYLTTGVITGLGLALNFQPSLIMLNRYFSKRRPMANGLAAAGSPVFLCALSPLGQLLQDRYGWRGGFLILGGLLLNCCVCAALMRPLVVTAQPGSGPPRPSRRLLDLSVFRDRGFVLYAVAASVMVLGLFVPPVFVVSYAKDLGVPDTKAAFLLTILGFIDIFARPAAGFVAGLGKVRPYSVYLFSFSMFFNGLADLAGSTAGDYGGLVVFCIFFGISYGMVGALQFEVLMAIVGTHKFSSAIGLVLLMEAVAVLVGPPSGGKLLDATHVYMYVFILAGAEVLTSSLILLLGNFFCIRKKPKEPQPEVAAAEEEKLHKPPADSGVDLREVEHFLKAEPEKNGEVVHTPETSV
Chain of MCT4 (P35613 whole entry partner, looked up): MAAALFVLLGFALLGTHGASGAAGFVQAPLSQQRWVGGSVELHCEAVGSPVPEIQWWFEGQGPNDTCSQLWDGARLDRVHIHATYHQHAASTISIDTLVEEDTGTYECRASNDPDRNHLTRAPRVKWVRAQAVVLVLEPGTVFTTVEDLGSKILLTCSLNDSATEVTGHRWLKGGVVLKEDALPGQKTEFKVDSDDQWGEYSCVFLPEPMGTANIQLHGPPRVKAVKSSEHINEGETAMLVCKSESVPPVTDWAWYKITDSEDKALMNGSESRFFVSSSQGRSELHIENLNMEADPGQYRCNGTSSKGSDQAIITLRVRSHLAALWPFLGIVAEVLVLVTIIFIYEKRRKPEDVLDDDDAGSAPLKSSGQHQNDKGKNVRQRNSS

Compound | half-life at 2 µM [1] | Human microsome % 60 min [1] | half-life at 2 µM [2] | Mouse microsome % 60 min [2] | IC50 (MCT1) | IC50 (MCT4)
CC(C)(OCc1cc(-c2cccc(OC3CC3)c2)n(Cc2ccccc2Cl)n1)C(=O)O [Example 39, 2-([1-[(2-Chlorophenyl)methyl]-5-[3-(cyclopropoxy)phenyl]1H-pyrazol-3-yl]methoxy)-2-methylpropanoic acid] | 6.33 h | 89% | 6.17 h | 88% |  | 
CC(C)COc1cccc(-c2cc(COC(C)(C)C(=O)O)nn2Cc2ccccc2Cl)c1 [Example 27, 2-([1-[(2-Chlorophenyl)methyl]-5-(3-(2-methyl-propoxy)phenyl)1H-pyrazol-3-yl]methoxy)-2-methylpropanoic acid] | 0.833 h | 43% | 1.02 h | 50% |  | 
CCC(C)(OCc1cc(-c2cccc(OC)c2)n(Cc2ccccc2Cl)n1)C(=O)O (stereo not shown) [Example 68, 2-([1-[(2-Chlorophenyl)methyl]-5-(3-methoxyphenyl)-1H-pyrazol-3-yl)methoxy)-2-methylbutanoic acid] | 13.2 h | 95% | 6.33 h | 91% |  | 
COc1cccc(-c2cc(COC(C)(C)C(=O)O)nn2Cc2ccccc2OC)c1 [Example 36, 2-([5-(3-Methoxyphenyl)-1-[(2-methoxyphenyl)methyl]1H-pyrazol-3-yl]methoxy)-2-methylpropanoic acid] | 4.83 h | 85% | 20 h | 99% |  | 
COc1cc(-c2cc(COC(C)(C)C(=O)O)nn2Cc2ccccc2Cl)cs1 [Example 66, 2-([1-[(2-chlorophenyl)methyl]-5-(5-methoxythien-3-yl)-1H-pyrazol-3-yl]-methoxy)-2-methylpropanoic acid] | 2 h | 73% | 4.33 h | 83% |  | 
COc1csc(-c2cc(COC(C)(C)C(=O)O)nn2Cc2ccccc2Cl)c1 [Example 65, 2-([1-[(2-Chlorophenyl)methyl)-5-(4-methoxythien-2-yl)-1H-pyrazol-3-yl]methoxy)-2-methylpropanoic acid] | 2.33 h | 78% | 9.33 h | 92% |  | 
COc1cccc(-c2c(C)c(COC(C)(C)C(=O)O)nn2Cc2ccccc2Cl)c1 [Example 54, 2-({1-[(2-Chlorophenyl)methyl]-5-(3-methoxyphenyl)-4-methyl-1H-pyrazol-3-yl)methoxy)-2-methylpropionic acid] | 1.3 h | 59% | 12.7 h | 95% |  | 
COc1ccc(-c2cc(COC(C)(C)C(=O)O)nn2Cc2ccccc2Cl)s1 [Example 64] | 3.33 h | 82% | 4.5 h | 84% |  | 
CC(C)Oc1cccc(-c2cc(COC(C)(C)C(=O)O)nn2Cc2ccccc2Cl)c1 [Example 35, 2-([1-[(2-Chlorophenyl)methyl]-5-(3-isopropoxyphenyl)1H-pyrazol-3-yl]methoxy)-2-methylpropanoic acid] | 1.92 h | 67% | 0.583 h | 31% |  | 
COc1cccc(-c2cc(COC(C)(C)C(=O)O)nn2-c2ccccc2Cl)c1 [Example 57, 2-([1-(2-chlorophenyl)-5-(3-methoxy-phenyl)-1H-pyrazol-3-yl]methoxy)-2-methylpropanoic acid] | 3.17 h | 80% | > 33.3 h | 100% |  | 
Cn1ncc2cc(-c3cc(COC(C)(C)C(=O)O)nn3Cc3ccccc3Cl)ccc21 [Example 209, 2-([1-[(2-Chlorophenyl)methyl]-5-(1-methyl-1H-indazol-5-yl)-1H-pyrazol-3-yl]-methoxy)-2-methyl propanoic acid] |  |  |  |  | 95000 nM | 31 nM
CCn1ncc2ccc(-c3cc(COC(C)(C)C(=O)O)nn3Cc3ccccn3)cc21 [Example 259, 2-([5-(1-Ethyl-1H-indazol-6-yl)-1-([pyridin-2-yl]methyl)-1H-pyrazol-3-yl]methoxy)-2-methylpropanoic acid] |  |  |  |  | > 100000 nM | 850 nM
CCn1ncc2cccc(-n3nc(COC(C)(C)C(=O)O)cc3-c3cccc(OCC(C)(C)C)c3)c21 [Example 172, 2-([5-(3-(2,2-Dimethylpropoxy)phenyl]-1-(1-ethyl-1H-indazol-7-yl)-1H-pyrazol-3-yl]-methoxy)-2-methylpropanoic acid] |  |  |  |  | 33000 nM | 0.59 nM
COc1cccc(-c2cc(CO[C@@H](C)C(=O)O)nn2Cc2ccccc2Cl)c1 [Example 124, (2S)-2-([1-[(2-Chlorophenyl)methyl]-5-(3-methoxyphenyl)-1H-pyrazol-3-yl]methoxy)-propanoic acid] |  |  |  |  | 31000 nM | 420 nM
Cn1nnc2cccc(-n3nc(COC(C)(C)C(=O)O)cc3-c3cccc(OCC(C)(C)C)c3)c21 [Example 258, 2-([5-[3-(2,2-Dimethylpropoxy)phenyl]-1-(1-methyl-1H-1,2,3-benzotriazol-7-yl)-1H-pyrazol-3-yl)methoxy)-2-methylpropanoic acid] |  |  |  |  | 27000 nM | 12 nM
CCOc1cccc(-c2cc(COC(C)(C)C(=O)O)nn2Cc2ccccc2OCC)c1 [Example 199, 2-([5-(3-Ethoxyphenyl)-1-[(2-ethoxy-phenyl)methyl]-1H-pyrazol-3-yl]methoxy)-2-methylpropanoic acid] |  |  |  |  | 34000 nM | 9.6 nM
CC(C)COc1cccc(-c2cc(COC(C)(C)C(=O)O)nn2-c2ccccc2N(C)C)c1 [Example 103, 2-([1-[2-(Dimethylamino)phenyl]-5-[3-(2-methylpropoxy)phenyl]-1H-pyrazol-3-yl]methoxy)-2-methylpropanoic acid] |  |  |  |  | 28000 nM | 2.6 nM
CC[C@@](C)(OCc1cc(-c2cccc(OC3CC3)c2)n(-c2cccc3cnn(C)c23)n1)C(=O)O [Example 217, (2R)-2-([5-(3-cyclopropoxyphenyl)-1-(1-methyl-1H-indazol-7-yl)-1H-pyrazol-3-yl]methoxy)-2-methylbutanoic acid] |  |  |  |  | 18000 nM | 8.7 nM
CC[C@@](C)(OCc1cc(-c2cccc(OCC(C)C)c2)n(-c2cccc3cnn(C)c23)n1)C(=O)O [Example 263, (2R)-2-Methyl-2-([1-(1-methyl-1H-indazol-7-yl)-5-[3-(2-methylpropoxy)phenyl]-1H-pyrazol-3-yl]methoxy]butanoic acid] |  |  |  |  | 16000 nM | 2.2 nM
CC(C)(OCc1cc(-c2ccc3c(c2)OCO3)n(Cc2ccccc2Cl)n1)C(=O)O [Example 204, [[5-(2H-1,3-Benzodioxol-5-yl)-1-[(2-chloro-phenyl)methyl]-1H-pyrazol-3-yl]methoxy)-2-methylpropanoic acid] |  |  |  |  | > 100000 nM | 40 nM
CC(C)Oc1ncc(-c2cc(COC(C)(C)C(=O)O)nn2Cc2ccccc2Cl)o1 [Example 227, 2-([1-[(2-Chlorophenyl)methyl]-5-[2-(propan-2-yloxy)-1,3-oxazol-5-yl]-1H-pyrazol-3-yl)methoxy)-2-methylpropanoic acid] |  |  |  |  | 37000 nM | 690 nM
Cn1ncc2ccc(-c3cc(COC(C)(C)C(=O)O)nn3-c3ccccc3Cl)cc21 [Example 174, 2-([1-(2-Chlorophenyl)-5-(1-methyl-1H-indazol-6-yl)-1H-pyrazol-3-yl]methoxy)-2-methylpropanoic acid] |  |  |  |  | > 100000 nM | 101 nM
CC(C)(OCc1cc(-c2cccc(OC3CC3)c2)n(-c2ccccc2F)n1)C(=O)O [Example 181, 2-([5-(3-cyclopropoxyphenyl)-1-(2-fluorophenyl)-1H-pyrazol-3-yl]methoxy)-2-methylpropanoate] |  |  |  |  | 25000 nM | 20 nM
CC(C)(OCc1cc(-c2cccc(OC3CC3)c2)n(-c2ccccc2-n2cccn2)n1)C(=O)O [Example 236, 2-([5-(3-Cyclopropoxyphenyl)-1-[2-(1H-pyrazol-1-yl)phenyl]-1H-pyrazol-3-yl]-methoxy)-2-methylpropanoic acid] |  |  |  |  | > 100000 nM | 170 nM
Cn1ncc2cccc(-n3nc(COC(C)(C)C(=O)O)cc3-c3cccc(OCC4CC4)c3)c21 [Example 169, 2-([5-[3-(Cyclopropylmethoxy)phenyl]-1-(1-methyl-1H-indazol-7-yl)-1H-pyrazol-3-yl]-methoxy)-2-methylpropanoic acid] |  |  |  |  | 68000 nM | 12.2 nM
